Assay results reported in article PMC6747323, “Discovery of Novel Angiotensin-Converting Enzyme Inhibitory Peptides from Todarodes pacificus and Their Inhibitory Mechanism: In Silico and In Vitro Studies” (International Journal of Molecular Sciences, 2019).
Ends that are not written are not given here. Peptide text beside a SMILES is read from it.

biological target: T1, ACE from rabbit lungs (Oryctolagus cuniculus, UniProt P12822); test: In vitro ACE inhibitory activity (HHL substrate, hippuric acid by UPLC); assay type: biochemical; conditions: synthesized new peptides, read-out: pIC50 (ACE inhibition) (converted)
T1 construct: The ACE from rabbit lungs; purchased Sigma Chemical Company (St. Louis, MO, USA); host or cells: rabbit lung tissue
T1 sequence (P12822 34-1310): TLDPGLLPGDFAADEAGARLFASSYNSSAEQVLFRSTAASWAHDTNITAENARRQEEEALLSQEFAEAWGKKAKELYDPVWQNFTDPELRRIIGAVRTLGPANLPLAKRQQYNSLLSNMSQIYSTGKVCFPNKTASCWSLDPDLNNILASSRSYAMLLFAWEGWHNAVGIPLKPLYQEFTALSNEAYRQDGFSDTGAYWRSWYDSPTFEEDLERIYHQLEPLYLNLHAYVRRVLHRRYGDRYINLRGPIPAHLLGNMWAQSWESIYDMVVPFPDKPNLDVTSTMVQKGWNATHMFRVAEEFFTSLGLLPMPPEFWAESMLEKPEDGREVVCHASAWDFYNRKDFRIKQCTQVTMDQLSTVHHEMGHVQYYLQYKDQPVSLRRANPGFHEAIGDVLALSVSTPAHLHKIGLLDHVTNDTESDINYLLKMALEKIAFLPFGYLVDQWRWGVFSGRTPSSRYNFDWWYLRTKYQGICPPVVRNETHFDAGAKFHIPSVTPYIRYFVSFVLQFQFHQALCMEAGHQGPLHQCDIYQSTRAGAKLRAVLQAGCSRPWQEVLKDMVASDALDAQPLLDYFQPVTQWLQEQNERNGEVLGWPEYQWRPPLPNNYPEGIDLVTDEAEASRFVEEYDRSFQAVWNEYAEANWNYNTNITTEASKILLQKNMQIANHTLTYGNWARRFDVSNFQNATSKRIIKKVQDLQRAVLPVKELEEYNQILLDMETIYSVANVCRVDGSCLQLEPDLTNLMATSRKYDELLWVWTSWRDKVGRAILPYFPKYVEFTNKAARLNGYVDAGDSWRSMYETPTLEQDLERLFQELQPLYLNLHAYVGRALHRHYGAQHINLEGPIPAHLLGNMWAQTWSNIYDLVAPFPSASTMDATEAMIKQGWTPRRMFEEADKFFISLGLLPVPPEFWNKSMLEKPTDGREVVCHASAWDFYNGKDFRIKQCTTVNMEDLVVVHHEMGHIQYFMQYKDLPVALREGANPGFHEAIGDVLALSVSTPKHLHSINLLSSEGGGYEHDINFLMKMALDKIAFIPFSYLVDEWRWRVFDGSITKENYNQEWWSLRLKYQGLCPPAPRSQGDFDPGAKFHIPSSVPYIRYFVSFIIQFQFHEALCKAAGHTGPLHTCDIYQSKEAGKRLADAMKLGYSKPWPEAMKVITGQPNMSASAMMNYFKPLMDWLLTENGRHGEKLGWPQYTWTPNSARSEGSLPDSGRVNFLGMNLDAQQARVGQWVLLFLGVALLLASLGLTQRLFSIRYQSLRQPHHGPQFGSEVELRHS
Excerpt: The tested peptides from t hmyosin heavy chain in Todarodes pacificus were provided by Anhui Guoping Pharmaceutical Co., Ltd. (Hefei, China). The ACE from rabbit lungs, hippuryl-histidyl-leucine (HHL), and hippuric acid (HA) were purchased from the Sigma Chemical Company (St. Louis, MO, USA). The solvents for high performance liquid chromatography (HPLC) including acetonitrile and trifluoroacetic acid (TFA) were provided by Merck (Darmstadt, Germany). All the other reagents and chemicals used were of analytical grade.
The ACE inhibitory activity analysis was performed based on Yu et al. with some modifications. HHL was dissolved in 100 mM sodium borate buffer (pH 8.3) to achieve a final concentration of 5.8 mM. A reaction mixture containing 50 μL of ACE solution (100 mU/mL) and 100 μL of sample were pre-incubated at 37 °C for 5 min. Subsequently, 150 μL HHL was added and the mixture was incubated at 37 °C for 60 min. The reaction was terminated by the addition of 200 μL of 0.1 M HCl. […] The amount of HA was determined via an ultra-performance liquid chromatography on a Waters Acquity UPLC BEH C18 column (1.7 μm, 2.1 mm × 100 mm). […] The degree of ACE inhibition was calculated as follows:(1) ACE inhibition activity (%)=A−B/A×100% where A was the HA concentration of a reaction containing ACE without peptide, B was the HA concentration of a reaction in the presence of ACE and peptide. […]

Question: Which IC50 does the source give for `NCCCC[C@H](NC(=O)[C@@H]1CCCN1C(=O)[C@@H]1CCCN1C(=O)[C@@H](N)CC(N)=O)C(=O)O` [NPPK, Asn-Pro-Pro-Lys] (H-NPPK-OH) here?
Answer: 38.9 µM

system: ACE; test: not given; set-up: method as in AHTpin and BIOPEP-UWM databases; conditions: Table S1, plant proteases without PREP; ref AHTpin and BIOPEP-UWM databases; cited from earlier work

Question: Which pIC50 does the source give for Ala-Gly [AG] here?
Answer: 2.60

Question: With Ala-His [AH] as the compound, how does the pIC50 read?
Answer: 3.28

Question: Which pIC50 does the source give for Ala-Phe [AF] here?
Answer: 3.78

Question: Which pIC50 does the source give for Ala-Ser-Leu [ASL] here?
Answer: 3.99

Question: Which pIC50 does the source give for Ala-Tyr [AY] here?
Answer: 4.85

Question: For Asn-Gly [NG], which pIC50 is on record?
Answer: 1.92

Question: With Asn-Tyr [NY] as the compound, how does the pIC50 read?
Answer: 4.49

Question: Which pIC50 does the source give for Asp-Gly [DG] here?
Answer: 5.67

Question: For Asp-Tyr [DY], which pIC50 is on record?
Answer: 4.00

Question: Which pIC50 does the source give for Gln-Lys [QK] here?
Answer: 3.05

Question: Which pIC50 does the source give for Glu-Gly [EG] here?
Answer: 2.00

Question: Which pIC50 does the source give for Glu-Trp [EW] here?
Answer: 3.86

Question: For Glu-Tyr [EY], which pIC50 is on record?
Answer: 5.57

Question: With Ile-Arg [IR] as the compound, how does the pIC50 read?
Answer: 3.16

Question: Which pIC50 does the source give for Ile-Leu here?
Answer: 4.26

Question: With Ile-Phe [IF] as the compound, how does the pIC50 read?
Answer: 4.18

Question: Which pIC50 does the source give for Ile-Tyr [IY] here?
Answer: 5.68

Question: Which pIC50 does the source give for Met-Gly [MG] here?
Answer: 2.32

Question: Which pIC50 does the source give for Met-Phe [MF] here?
Answer: 6.04

Question: Which pIC50 does the source give for Met-Tyr [MY] here?
Answer: 3.71

Question: For Pro-Leu [PL], which pIC50 is on record?
Answer: 3.47

Question: Which pIC50 does the source give for Pro-Pro-Lys [PPK] here?
Answer: 3.00

Question: For Ser-Gly [SG], which pIC50 is on record?
Answer: 2.07

Question: Which pIC50 does the source give for Ser-Phe [SF] here?
Answer: 3.89

Question: With Ser-Thr [ST] as the compound, how does the pIC50 read?
Answer: 5.39

Question: For Thr-Phe [TF], which pIC50 is on record?
Answer: 4.74

Question: With Trp-Leu [WL] as the compound, how does the pIC50 read?
Answer: 4.52

Question: Which pIC50 does the source give for Val-Ala-Phe [VAF] here?
Answer: 4.45

Question: For Val-Phe [VF], which pIC50 is on record?
Answer: 5.04

same assay, conditions: Table S2, plant proteases with PREP; ref AHTpin and BIOPEP-UWM databases; cited from earlier work

Question: With Ala-Ile-Pro [AIP] as the compound, how does the pIC50 read?
Answer: 3.46

Question: With Ala-Pro [AP] as the compound, how does the pIC50 read?
Answer: 4.54

Question: Which pIC50 does the source give for Ala-Val-Pro [AVP] here?
Answer: 3.47

Question: For Lys-Pro [KP], which pIC50 is on record?
Answer: 4.66

Question: Which pIC50 does the source give for Thr-Pro [TP] here?
Answer: 3.54

Question: With Val-Pro [VP] as the compound, how does the pIC50 read?
Answer: 3.38

system: ACE; test: not given; conditions: from porcine skeletal muscle hydrolysate; cited from earlier work

Question: For “Met-Asn-Pro-Pro-Lys (MNPPK; printed: Met-Asn-Pro-Pro-Lys)”, which “pIC50 (ACE inhibition)” value is on record?
Answer: 3.02

same assay, conditions: peptide derived from catfish myofibrillar protein; cited from earlier work

Question: For “Ile-Glu-Lys-Pro (IEKP; printed: Ile-Glu-Lys-Pro)”, which “IC50 (ACE inhibition)” value is on record?
Answer: 2.1 µg/mL

same assay, conditions: β-casein fragment; cited from earlier work

Question: For KVLPVPQ, which “ACE inhibitory activity in vitro” value is on record?
Answer: relatively weak

system: spontaneously hypertensive rats; test: not given; set-up: method as in PMID 28102435; conditions: cited from earlier work

Question: With KVLPVPQ as the compound, how does the Antihypertensive effect read?
Answer: effective
